Experimental data from patent US20050009789A1, “Cyclooxygenase inhibition with nitroxyl” (The Government of the USA as represented by the Secretary …, priority 2003, published 2005).
Values joined by “and” are separate entries in the source; they are usually repeats but may differ in a detail not shown here. Equal entries are not always repeated. Each block holds one molecule with its values, some of them ahead of it.

Experiments:
Nitroxyl donation pH = type: physicochemical
Excerpt: “Nitroxyl donation pH” is the pH at which and above which a nitroxyl-donating compounds donates nitroxyl.
Further, compounds are easily tested for nitroxyl donation with routine experiments. Although it is impractical to directly measure whether nitroxyl is donated, several tests are accepted for determining whether a compound donates nitroxyl. For example, the compound of interest can be placed in solution, for example in water, in a sealed container. After sufficient time for disassociation has elapsed, such as from several minutes to several hours, the headspace gas is withdrawn and analyzed to determine its composition, such as by gas chromatography and/or mass spectroscopy. […] Nitroxyl donation also can be detected by exposing the target donor to metmyoglobin (Mb^3+). Nitroxyl reacts with Mb^3+ to form an Mb^2+—NO complex, which can be detected by changes in the ultraviolet/visible spectrum or by Electron Paramagnetic Resonance (EPR). […]
Testing for nitroxyl donation in some cases is performed at a range of pHs to determine the nitroxyl donation pH of the nitroxyl-donating compound. […] After the lowest pH at which nitroxyl donation occurs in a first set of tests is found, additional tests can be performed with narrower ranges of pH around the first determined nitroxyl donation pH to obtain a more specific nitroxyl donation pH. […]

COX-1 = target: T1, COX-1 (Ovis aries, UniProt P05979); experiment: COX-1 inhibition, prostaglandin (PGF2α) enzyme immunoassay; type: biochemical
T1 construct: purchased Cayman Chemical #560101
T1 sequence (P05979 25-600): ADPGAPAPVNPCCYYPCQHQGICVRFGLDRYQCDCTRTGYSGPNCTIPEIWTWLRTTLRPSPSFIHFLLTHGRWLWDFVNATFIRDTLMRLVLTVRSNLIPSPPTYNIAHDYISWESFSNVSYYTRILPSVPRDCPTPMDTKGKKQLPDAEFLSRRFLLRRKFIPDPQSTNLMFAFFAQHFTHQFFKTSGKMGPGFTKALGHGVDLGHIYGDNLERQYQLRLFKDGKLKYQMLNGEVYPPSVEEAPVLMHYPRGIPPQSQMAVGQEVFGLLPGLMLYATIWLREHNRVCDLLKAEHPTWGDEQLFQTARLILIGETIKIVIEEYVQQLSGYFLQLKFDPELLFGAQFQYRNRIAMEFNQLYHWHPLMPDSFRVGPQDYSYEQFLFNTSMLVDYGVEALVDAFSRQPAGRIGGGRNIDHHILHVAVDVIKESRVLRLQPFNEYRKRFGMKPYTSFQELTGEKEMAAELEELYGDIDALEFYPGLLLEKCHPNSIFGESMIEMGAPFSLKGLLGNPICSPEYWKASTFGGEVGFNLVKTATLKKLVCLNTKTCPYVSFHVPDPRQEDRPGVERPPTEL
Excerpt: (§1) In some cases, screening in the latter method (measuring prostaglandin production) is accomplished using an enzyme immunoassay (EIA) where COX systems include COX-1 or COX-2, an EIA reaction buffer, Heme, and either a control solution, such as NaOH, for control systems or inhibitor solutions of the nitroxyl donor in NaOH having a range of progressively increasing concentrations of the nitroxyl-donating compound. These systems are reacted with arachidonic acid for a period typically of about five to ten minutes. The COX reactions are stopped in each system, for example, by the addition of hydrochloric acid (HCl).
(§2) The relative amounts prostaglandins, such as PGF2α, in each system are measured with an EIA kit. The EIA measures the amounts of prostaglandins in the systems based on binding to an assay antibody. Binding is determined by absorbance, for example, absorbance at 405 nm, with a plate reader, such as a Perkin Elmer plate reader. High binding results in low absorbance indicating low inhibition, while low binding results in high absorbance indicating high inhibition.
(§3) Once the inhibitor and control systems are prepared they are diluted in the EIA buffer at various dilution ratios, such as 1:1000, 1:2000, and 1:4000 and added to wells of the plate. The plate also contains prostaglandin (PG) standard systems, non-specific binding (NSB) systems, background COX systems, and zero binding (B0) systems, which are used to calibrate the EIA. PG standard systems are prepared at various progressively increasing concentrations of PG, for example 15.6, 31.3, 62.5, 125, 250, 500, 1000, and 2000 PG/mL. Background COX systems contain either boiled COX-1 or COX-2 diluted in EIA reaction buffer. NSB, and B0 systems include only the EIA buffer. Prostaglandin screening acetylcholinase tracer (reconstituted in the EIA buffer) is added to each system. Prostaglandin screening antiserum (reconstituted in the EIA buffer) is added to each system other than the NSB system. Typically, the plate is incubated from several hours to a day, such as from 4 to 24 hours at room temperature (about 22° C.). Ellman's reagent is added to each system in each well and the plate is agitated, such as on an orbital shaker, and protected from light, for example by covering with aluminum foil, for about an hour. The plate is then read on a plate reader, such as a Perkin Elmer plate reader.
(§4) An average value for the absorbance of the NSB systems is determined and this absorbance is used to correct the reading of other systems for NSB (by subtracting the average NSB absorbance). An average value for the absorbance of background COX also is determined and absorbance is later used to correct other systems for background COX levels.
(§5) An average value for B0 is obtained and NSB corrected. Average values for absorbance of each PG standard system are obtained and NSB corrected. The percentage of prostanoid binding is determined by dividing the average NSB corrected absorbance (binding (B)) for each PG standard system by the average NSB corrected absorbance for B0 systems (percentage equals B/B0*100). A standard curve is prepared with % B/B0 on the y axis and the prostaglandin concentration (PG/mL) on the x axis. Then the average % B/B0 for the background, control, and inhibitor systems are determined for each concentration tested. The PG concentration for each of these systems is determined by finding the point on the standard curve that corresponds to the determined % B/B0, determining the corresponding PG concentration on the x axis, and multiplying this concentration by the dilution factor used to prepare the system. To correct for background COX the PG concentration of the background COX-1 or COX-2 systems are subtracted from the COX-1 and COX-2 inhibitor and control systems, respectively. The percentage of inhibition is determined dividing the PG concentration for inhibitor systems by the PG concentration for control systems and multiplying by 100. […]

COX-2 = target: T2, COX-2 (Ovis aries, UniProt P79208); experiment: COX-2 inhibition, prostaglandin (PGF2α) enzyme immunoassay; type: biochemical
T2 construct: purchased Cayman Chemical #560101
T2 sequence (P79208 17-603): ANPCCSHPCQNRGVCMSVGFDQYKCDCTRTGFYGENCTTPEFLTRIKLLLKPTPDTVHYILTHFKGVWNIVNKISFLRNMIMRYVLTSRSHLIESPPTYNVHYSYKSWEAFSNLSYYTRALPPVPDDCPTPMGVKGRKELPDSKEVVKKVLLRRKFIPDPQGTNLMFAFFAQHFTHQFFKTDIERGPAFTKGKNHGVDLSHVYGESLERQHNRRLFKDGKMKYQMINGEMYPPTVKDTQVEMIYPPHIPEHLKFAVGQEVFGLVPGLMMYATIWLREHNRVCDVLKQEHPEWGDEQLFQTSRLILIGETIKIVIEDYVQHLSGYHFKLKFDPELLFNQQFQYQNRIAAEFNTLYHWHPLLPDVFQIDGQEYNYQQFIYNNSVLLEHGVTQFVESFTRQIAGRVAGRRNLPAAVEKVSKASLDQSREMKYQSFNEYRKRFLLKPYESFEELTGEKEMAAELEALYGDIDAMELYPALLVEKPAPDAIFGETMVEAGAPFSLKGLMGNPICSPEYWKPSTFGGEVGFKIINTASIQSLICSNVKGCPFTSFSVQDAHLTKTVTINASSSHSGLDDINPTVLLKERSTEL
Excerpt: as §1, §2, §3, §4, §5

[1] = Example 1, Angeli's salt concentration 0.001 μM, 1:2000 dilution
[2] = Example 1, Angeli's salt concentration 1.0 μM, 1:2000 dilution
[3] = Example 1, Angeli's salt concentration 10.0 μM, 1:2000 dilution
[4] = Example 1, Angeli's salt concentration 500.0 μM, 1:2000 dilution
[5] = Example 2, Angeli's salt concentration 0.100 μM, data below about 50 μM called unreliable
[6] = Example 2, Angeli's salt concentration 100.0 μM
[7] = Example 2, Angeli's salt concentration 500.0 μM
[8] = Example 2, Angeli's salt concentration 1000.0 μM
[9] = Example 3, nitroxyl donor concentration 25 μM
[10] = Example 3, nitroxyl donor concentration 50 μM
[11] = Example 3, nitroxyl donor concentration 75 μM
[12] = Example 3, nitroxyl donor concentration 100 μM
[13] = Example 3, nitroxyl donor concentration 1000 μM

nitroxyl donation pH (pH at which and above which nitroxyl is donated) (Nitroxyl donation pH): about 3
IC50 (COX-1; Example 1, read from FIG. 1): ~600 µM
Percentage COX-1 Inhibition (COX-1; [1]): 0.0%
Percentage COX-1 Inhibition (COX-1; [2]): 0.0%
Percentage COX-1 Inhibition (COX-1; [3]): 0.0%
Percentage COX-1 Inhibition (COX-1; Example 1, Angeli's salt concentration 100.0 μM, 1:2000 dilution): 18.3%
Percentage COX-1 Inhibition (COX-1; [4]): 40.2%
Percentage COX-1 Inhibition (COX-1; Example 1, Angeli's salt concentration 1000.0 μM, 1:2000 dilution): 95.4%
COX-1 activity inhibited (COX-1; Example 1, concentrations from about 50 μM to about 100 μM): ≤ 19%
IC50 (COX-1; Example 2, reasonable estimate): 200 to 250 µM
Percentage COX-1 Inhibition (COX-1; Example 2, Angeli's salt concentration 0.001 μM, data below about 50 μM called unreliable): 97.5%
Percentage COX-1 Inhibition (COX-1; [5]): 24.7%
Percentage COX-1 Inhibition (COX-1; Example 2, Angeli's salt concentration 1.0 μM, data below about 50 μM called unreliable): 57.5%
Percentage COX-1 Inhibition (COX-1; Example 2, Angeli's salt concentration 50.0 μM): 16.4%
Percentage COX-1 Inhibition (COX-1; [6]): 45.7%
Percentage COX-1 Inhibition (COX-1; [7]): 62.5%
Percentage COX-1 Inhibition (COX-1; [8]): 68.6%
COX-1/COX-2 IC50 ratio (COX-2; Example 1): about 0.08
IC50 (COX-2; Example 1, read from FIG. 1): ~50 µM
Percentage COX-2 inhibition (COX-2; [1]): 0.0%
Percentage COX-2 inhibition (COX-2; [2]): 34.6%
Percentage COX-2 inhibition (COX-2; [3]): 28.8%
Percentage COX-2 inhibition (COX-2; Example 1, Angeli's salt concentration 100.0 μM, 1:2000 dilution, 100 µM): 100% and 99.2%
Percentage COX-2 inhibition (COX-2; [4]): 86.4%
IC50 (COX-2; Example 2, reasonable estimate): ~50 µM
Percentage COX-2 inhibition (COX-2; [5]): 98.9%
Percentage COX-2 inhibition (COX-2; [6]): 98%
Percentage COX-2 inhibition (COX-2; [7]): 105.7%
Percentage COX-2 inhibition (COX-2; [8]): 106%
Percentage COX-2 inhibition (COX-2; [9]): 5.4%
Percentage COX-2 inhibition (COX-2; [10]): 13.7%
Percentage COX-2 inhibition (COX-2; [11]): 49.2%
Percentage COX-2 inhibition (COX-2; [12]): 59.9%
Percentage COX-2 inhibition (COX-2; [13]): 60.4%
COX-2/COX-1 IC50 ratio (COX-2; one particular example (detailed description)): about 0.08
SMILES: [Na+].[Na+].[O-][N+]([O-])=NO [Angeli's salt, Na2ON(O)NO]

nitroxyl donation pH (pH at which and above which nitroxyl is donated) (Nitroxyl donation pH): about 5.5
Percentage COX-2 inhibition (COX-2; [9]): 6.7%
Percentage COX-2 inhibition (COX-2; [10]): 59.5%
Percentage COX-2 inhibition (COX-2; [11]): 46.4%
Percentage COX-2 inhibition (COX-2; [12]): 62.2%
Percentage COX-2 inhibition (COX-2; [13]): 86.8%
SMILES: CC(C)N[N+]([O-])=N[O-].[Na+] [IPA/NO, Na(CH3)2C(H)N(H)N(O)NO]
COX-2 inhibition, overall trend compared to Angeli's salt (COX-2; Example 3, 25 to 1000 μM): more effective inhibitor of COX-2 than Angeli's salt
